The subject of assay [1] is Clonic Seizures Caused by Pentylenetetrazole in Rats. As to the kind of experiment: Protection against clonic seizures caused by pentylenetetrazole in rats. Type of assay: in vivo. Conditions: Rattus norvegicus, oral or i.p., read-out: % of Rats Protected; for responders at 25 mg/kg: pentylenetetrazole 23 mg/kg i.v. at 30 or 60 min. Put shortly:
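Rats (at least 4 per group) given single or graded oral or intraperitoneal doses in starch/PEG/Polysorbate 80 vehicle. After 30 or 60 min, pentylenetetrazole 23 mg/kg i.v. was given, a dose expected to induce clonic seizures in 99% of unprotected rats. Protection from convulsions was scored.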

The test system of assay [2] is Nonconditioned Passive Avoidance in Rats. Briefly: Nonconditioned passive avoidance (conflict) test in rats. Type of assay: in vivo, rat (Wistar). More on the design: key: Active: considered active if the number of shocks received by the test group is significantly higher than the control group by the Mann-Witney U test. Conditions: dose 25.0 mg/kg, oral or i.p. As for the experimental part:
Another test which has been used to assess anti-anxiety effects is a nonconditioned passive avoidance procedure described by [J. R. Vogel, B. Beer and D. E. Clody, "A Simple and Reliable Conflict Procedure for Testing Anti-Anxiety Agents", Psychopharmacologia, 21, 1-7 (1971)]. A conflict situation is induced in rats by a modification of this method.
Groups of 6 naive, Wistar strain rats, weighing 200-240 g each were deprived of water for 48 hours and food for 24 hours. The test compounds were administered in single or graded, oral or intraperitoneal doses, suspended in a 2% starch vehicle containing 0.5% v/v polyethylene glycol and one drop of polysorbate 80. Control animals received the vehicle alone. At 30 to 60 minutes each rat was placed in an individual plexiglass chamber. Water was available ad libitum from a tap located in the rear of the chamber. A 0.7 milliampere DC shocking current was established between the stainless steel grid floor and the tap. After 20 licks of non-shocked drinking, a shock was delivered for 2 seconds and then further shocks were delivered on a ratio of one shock for 2 seconds for every 20 licks. This was continued for a total of 3 minutes. The number of shocks taken by each rat during the 3 minute interval was recorded and compared to a control group. […]

For assay [3], the system named is Brain-Specific Receptors of Rats. As to the kind of experiment: Inhibition of the binding of 3H-benzodiazepine to brain-specific receptors of rats. More on the design: species or system rat (Wistar). Conditions: 3H-diazepam 1.5 nM or 3H-flunitrazepam 1.0 nM; rat cortex P2 fraction; test concentration not given.
The subject of assay [4] is Locomotor Activity in Rats. As to the kind of experiment: Effects on locomotor activity in rats. Format: in vivo. Conditions: Rattus norvegicus, 1 h; dose causing 50% decrease in mean activity counts vs vehicle; oral, 60 min; read-out: MDD50. As for the experimental part: Groups of 6 rats were treated orally with vehicle (5 ml/kg) or graded doses of the test compounds. Sixty minutes later, individual rats were placed in Actophotometers and locomotor activity was measured for 5 minutes after a brief (30 sec.) habituation period. Motor Activity Counts (number of crossings of the photo cells) were recorded for each rat, and mean activity counts were calculated for each treatment group. The dose causing a 50% decrease in mean activity counts compared with the vehicle group (MDD50) was calculated from a linear regression equation.

The record followed here is patent US4521422A, “Aryl and heteroaryl[7-(aryl and heteroaryl)pyrazolo[1,5-a]pyrimidin-3-yl]methanones” (American Cyanamid Company, priority 1984, dated 1985).

One may read the % Inhibition as the share of the control response that was lost under treatment.

Molecules are shown by their SMILES.

Regarding `COc1ccc(C(=O)c2cnn3c(-c4cccnc4)ccnc23)cc1OC` [(3,4-dimethoxyphenyl)[7-(3-pyridinyl)pyrazolo[1,5-a]pyrimidin-3-yl]methanone], the responders at 25 mg/kg in assay [1] was 87%. In assay [2], the “Result (nonconditioned passive avoidance)” value (from here on “Result”) is listed as “Active”. Also, the “% Inhibition” value in assay [3] is reported as 75%.
With `O=C(c1ccncc1)c1cnn2c(-c3ccncc3)ccnc12` [4-pyridinyl[7-(4-pyridinyl)pyrazolo[1,5-a]pyrimidin-3-yl]methanone], the “Result” value in assay [2] was “Active”. In assay [3], the “% Inhibition” value is 11%.
In the case of `O=C(c1ccccc1)c1cnn2c(-c3ccc(F)cc3)ccnc12` [[7-(4-fluorophenyl)pyrazolo[1,5-a]pyrimidin-3-yl]phenyl-methanone], in assay [1], the responders at 25 mg/kg was 100%. The “Result” value in assay [2] is “Active”. Besides, the “% Inhibition” value in assay [3] was determined as 18%.
The corresponding values for `O=C(c1ccccc1)c1cnn2c(-c3cc[n+]([O-])cc3)ccnc12` [Phenyl[7-(4-pyridinyl)pyrazolo[1,5-a]pyrimidin-3-yl]methanone, pyridine-1-oxide] are 100%, “Active” and 39%.
In the case of `O=C(c1cccc(C(F)(F)F)c1)c1cnn2c(-c3cccnc3)ccnc12` [[7-(3-pyridinyl)pyrazolo[1,5-a]pyrimidin-3-yl][3-(trifluoromethyl)phenyl]methanone], the “Result” value in assay [2] is reported as “Active”. In addition, the “% Inhibition” value in assay [3] worked out at 38%.
For the compound `O=C(c1ccc(Cl)cc1)c1cnn2c(-c3cccc(C(F)(F)F)c3)ccnc12` [(4-chlorophenyl)[7-[3-(trifluoromethyl)phenyl]pyrazolo[1,5-a]pyrimidin-3-yl]methanone], in assay [2], the “Result” value is on record as “Active”. In assay [3], the “% Inhibition” value turned out to be 81%.
As to `O=C(c1ccco1)c1cnn2c(-c3ccncc3)ccnc12` [2-furanyl[7-(4-pyridinyl)pyrazolo[1,5-a]pyrimidin-3-yl]methanone], in assay [1], the responders at 25 mg/kg is 25%. In addition, the “Result” value in assay [2] is “Active”. In addition, the “% Inhibition” value in assay [3] is reported as 19%.
For the compound `O=C(c1ccc(F)cc1)c1cnn2c(-c3ccc(F)cc3)ccnc12` [(4-fluorophenyl)[7-(4-fluorophenyl)pyrazolo[1,5-a]pyrimidin-3-yl]methanone], the responders at 25 mg/kg in assay [1] is 75%. In assay [2], the “Result” value is on record as “Active”. Further, the “% Inhibition” value in assay [3] is 34%.
Take `CCN(C(C)=O)c1cccc(-c2ccnc3c(C(=O)c4ccccc4)cnn23)c1` [N-[3-(3-Benzoylpyrazolo[1,5-a]pyrimidin-7-yl)phenyl]-N-ethylacetamide]: in assay [1] (dose 6.2 mg/kg, pentylenetetrazole 23 mg/kg i.v.), the responders at 6.2 mg/kg was 100%. Moreover, in assay [2], the “Result” value is “Active”.
As to `O=C(c1cccc(F)c1)c1cnn2c(-c3ccncc3)ccnc12` [(3-fluorophenyl)[7-(4-pyridinyl)pyrazolo[1,5-a]pyrimidin-3-yl]methanone], the responders at 25 mg/kg in assay [1] was found to be 100%. Besides, the “Result” value in assay [2] was “Active”.
The corresponding values for `O=C(c1ccccc1F)c1cnn2c(-c3ccncc3)ccnc12` [(2-fluorophenyl)[7-(4-pyridinyl)pyrazolo[1,5-a]pyrimidin-3-yl]methanone] are 50% and “Active”.
Take `O=C(c1ccoc1)c1cnn2c(-c3cccnc3)ccnc12` [3-furanyl[7-(3-pyridinyl)pyrazolo[1,5-a]pyrimidin-3-yl]methanone]: in assay [1], the responders at 25 mg/kg was found to be 100%. Also, in assay [2], the “Result” value is reported as “Active”. The “% Inhibition” value in assay [3] stood at 77%.
Regarding `O=C(c1ccccn1)c1cnn2c(-c3cccnc3)ccnc12` [2-Pyridinyl[7-(3-pyridinyl)pyrazolo[1,5-a]pyrimidin-3-yl]methanone], in assay [1], the responders at 25 mg/kg is 75%. Further, in assay [2], the “Result” value was “Active”. In addition, in assay [3], the “% Inhibition” value came out at 98%.
For the compound `CCc1ccc(C(=O)c2cnn3c(-c4cccnc4)ccnc23)cc1` [(4-ethylphenyl)[7-(3-pyridinyl)pyrazolo[1,5-a]pyrimidin-3-yl]methanone], the responders at 25 mg/kg in assay [1] stood at 100%. Besides, the “Result” value in assay [2] is listed as “Active”.
As for `O=C(c1cccc(F)c1)c1cnn2c(-c3cccnc3)ccnc12` [(3-fluorophenyl)[7-(3-pyridinyl)pyrazolo[1,5-a]pyrimidin-3-yl]methanone], the responders at 25 mg/kg in assay [1] was determined as 100%. Besides, the “Result” value in assay [2] is “Active”. Moreover, the “% Inhibition” value in assay [3] was found to be 20%.
In the case of `O=C(c1ccncc1)c1cnn2c(-c3cccnc3)ccnc12` [4-pyridinyl[7-(3-pyridinyl)pyrazolo[1,5-a]pyrimidin-3-yl]methanone], in assay [1], the responders at 25 mg/kg stood at 100%. In addition, the “Result” value in assay [2] was “Active”.
In the case of `O=C(c1ccccn1)c1cnn2c(-c3ccncc3)ccnc12` [2-pyridinyl[7-(4-pyridinyl)pyrazolo[1,5-a]pyrimidin-3-yl]methanone], in assay [1], the responders at 25 mg/kg was determined as 100%. For the same compound, the “Result” value in assay [2] is “Active”. Moreover, in assay [3], the “% Inhibition” value is given as 29%. Further, the ED50 in assay [4] was determined as 101 mg/kg.
With `O=C(c1ccc(F)cc1)c1cnn2c(-c3cccc(C(F)(F)F)c3)ccnc12` [(4-fluorophenyl)[7-[3-(trifluoromethyl)phenyl]pyrazolo[1,5-a]pyrimidin-3-yl]methanone], in assay [1] (dose 12.5 mg/kg, pentylenetetrazole 23 mg/kg i.v.), the responders at 12.5 mg/kg came out at 38%. Moreover, the “Result” value in assay [2] is given as “Active”. Moreover, the “% Inhibition” value in assay [3] came out at 50%.
For the compound `CN(C)c1ccc(C(=O)c2cnn3c(-c4cccc(C(F)(F)F)c4)ccnc23)cc1` [[4-(dimethylamino)phenyl][7-[3-(trifluoromethyl)phenyl]pyrazolo[1,5-a]pyrimidin-3-yl]methanone], in assay [1], the responders at 25 mg/kg is 100%. Moreover, the “Result” value in assay [2] was “Active”.
For the compound `Cc1cnc2c(C(=O)c3ccccc3)cnn2c1-c1ccncc1` [[6-methyl-7-(4-pyridinyl)pyrazolo[1,5-a]pyrimidin-3-yl]phenyl-methanone], in assay [1], the responders at 25 mg/kg amounted to 100%. Also, the “Result” value in assay [2] is on record as “Active”. Further, the “% Inhibition” value in assay [3] was determined as 56%.
With `O=C(c1ccccn1)c1cnn2c(-c3ccc(F)cc3)ccnc12` [[7-(4-fluorophenyl)pyrazolo[1,5-a]pyrimidin-3-yl]-2-pyridinyl-methanone], the responders at 25 mg/kg in assay [1] was determined as 50%. In addition, the “Result” value in assay [2] is listed as “Active”. Moreover, the “% Inhibition” value in assay [3] was determined as 64%.
In the case of `CCNc1cccc(-c2ccnc3c(C(=O)c4ccccc4)cnn23)c1` [[7-[3-(Ethylamino)phenyl]pyrazolo[1,5-a]pyrimidin-3-yl]phenylmethanone], in assay [1], the responders at 25 mg/kg was 100%. Further, in assay [2], the “Result” value is recorded as “Active”.
Take `O=C(c1cccs1)c1cnn2c(-c3cccc(C(F)(F)F)c3)ccnc12` [2-thienyl[7-[3-(trifluoromethyl)phenyl]pyrazolo[1,5-a]pyrimidin-3-yl]methanone]: the responders at 25 mg/kg in assay [1] turned out to be 100%. Also, the “Result” value in assay [2] is recorded as “Active”. Further, the “% Inhibition” value in assay [3] came to 99%.
`COc1cccc(C(=O)c2cnn3c(-c4cccnc4)ccnc23)c1` [(3-methoxyphenyl)[7-(3-pyridinyl)pyrazolo[1,5-a]pyrimidin-3-yl]methanone]: in assay [1], the responders at 25 mg/kg is 75%. In addition, the “Result” value in assay [2] is reported as “Active”.
Take `Cc1cccc(C(=O)c2cnn3c(-c4cccnc4)ccnc23)c1` [(3-methylphenyl)[7-(3-pyridinyl)pyrazolo[1,5-a]pyrimidin-3-yl]methanone]: the responders at 25 mg/kg in assay [1] turned out to be 100%. In addition, the “Result” value in assay [2] is on record as “Active”. Also, in assay [3], the “% Inhibition” value worked out at 70%.
